The values that follow are results of earlier work, collected in patent US20030133985A1, “Formulation of an erodible, gastric retentive oral dosage form using in vitro disintegration test data” (priority 2001, published 2003).

For the series the following is noted: at 20° C.

For `CC1(C)O[C@@H]2[C@@H](CO[C@@]3(COS(N)(=O)=O)OC(C)(C)O[C@@H]23)O1` [topiramate], the water solubility was 1%.
